Experimental data as given in US20200085853A1, “TARGETING NR3B1 FOR TREATMENT OF NASH” (University of Southern California, priority 2018, published 2020).

Key:
[1] = system: oxygen consumption rate (OCR); assay: Seahorse XF24 metabolic flux analysis (oxygen consumption rate); type: cell-based
Experimental: Cells were cultured on XF24 plates during experiment. The mitochondrial inhibitors, oligomycin (1 μM), FCCP (0.1 μM) and Rotenone (1 μM) were added after four measurements of basal OCR as described previously.^14 • RNA Isolation, Reverse Transcription and Quantitative PCR

RXR = RXR agonist treatment, expression of lipogenic and triglyceride biosynthetic genes; type: cell-based; conditions: FIG. 6A
From the text: To address how NR3B may inhibit the lipogenic and triglyceride synthesis process, the RNA-seq data for SREBP and Chrebp, two transcriptional factors directly involved in the biosynthesis of lipid was explored. […] RXR binds to both PPARg and LXR and has the potential to regulate lipid metabolism through its interaction with these two nuclear receptors. It was explored whether RXR activation alters the expression of the lipogenic and triglyceride biosynthetic genes.

C=C(c1ccc(C(=O)O)cc1)c1cc2c(cc1C)C(C)(C)CCC2(C)C [Bexarotene]
effect on the NR3B-PA induced change of OCR ([1]; co-treatment with NR3B-PA, FIG. 6B): did not block | expression of AGPAT3 (RXR): induction | expression of DGAT2 (RXR): induction | expression of Fasn (RXR): induction

COc1cc(/C=C(\C#N)C(=O)Nc2nnc(C(F)(F)F)s2)ccc1OCc1ccc(C(F)(F)F)cc1C(F)(F)F [XCT 790]
basal oxygen consumption rate (OCR) ([1]; 0.1 μM, FIG. 2A): similar | maximal oxygen consumption rate (OCR) ([1]; 0.1 μM, FIG. 2A): similar
